Values of other authors in patent US20050095288A1, “Decongestant and expectorant tablets” (Andrx Labs, LLC, priority 2003, published 2005).

Details: background statement, no test described

Q: Which typical plasma half-life does the source give for `COc1ccccc1OCC(O)CO` (stereo not shown) [Guaifenesin, 3-(2-methoxyphenoxy)-1,2-propane-diol] here?
A: approximately one
